{"source": "patent US9113629B2", "about": "“4-amino-6-(4-substituted-phenyl)-picolinates and 6-amino-2-(4-substituted-phenyl)-pyrimidine-4-carboxylates and their use as herbicides” (DOW AGROSCIENCES LLC, priority 2013, dated 2015)", "key": {"[1]": {"tested_on": "Key Broadleaf Weed and Crop Species", "test": "Post-emergent Test II herbicidal activity (Table 5)", "assay_type": "in vivo", "details": "post-emergence, 336 h, post-emergent, 14 days after application; for pest or weed control at 70 g/ha: 70 g ai/ha; for pest or weed control at 140 g/ha: 140 g ai/ha", "procedure,_shortened": "(§1)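 Scoring: visual, 0–100% injury at 14 d versus untreated. Treatment: overhead track spray, 187 L/ha, onto plants at the first–second true leaf stage. Growth: greenhouse, ~15 h light, 23–29 °C day, 22–28 °C night.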"}, "[2]": {"tested_on": "Key Grass and Sedge Weeds as well as Grass Crops", "test": "Post-emergent Test II herbicidal activity (Table 6)", "assay_type": "in vivo", "details": "post-emergence, 336 h; for pest or weed control at 70 g/ha: application rate 70 g ai/ha; for pest or weed control at 140 g/ha: application rate 140 g ai/ha", "procedure,_shortened": "as §1"}, "[3]": {"details": "ABUTH: velvetleaf (Abutilon theophrasti), read-out: Visual Growth Reduction (%) 14 Days After Application ABUTH"}, "[4]": {"details": "AMARE: redroot pigweed (Amaranthus retroflexus), read-out: Visual Growth Reduction (%) 14 Days After Application AMARE"}, "[5]": {"details": "BRSNN: oilseed-rape, canola (Brassica napus), read-out: Visual Growth Reduction (%) 14 Days After Application BRSNN"}, "[6]": {"details": "CHEAL: lambsquarters (Chenopodium album), read-out: Visual Growth Reduction (%) 14 Days After Application CHEAL"}, "[7]": {"details": "EPHHL: wild poinsettia (Euphorbia heterophylla), read-out: Visual Growth Reduction (%) 14 Days After Application EPHHL"}, "[8]": {"details": "HELAN: sunflower (Helianthus annuus), read-out: Visual Growth Reduction (%) 14 Days After Application HELAN"}, "[9]": {"details": "VIOTR: wild pansy (Viola tricolor), read-out: Visual Growth Reduction (%) 14 Days After Application VIOTR"}, "[10]": {"details": "Triticum aestivum, TRZSS (wheat), read-out: Visual Growth Reduction (%) 14 Days After Application, TRZSS"}, "[11]": {"details": "CYPES: yellow nutsedge (Cyperus esculentus), read-out: Visual Growth Reduction (%) 14 Days After Application, CYPES"}, "[12]": {"details": "DIGSA: crabgrass (Digitaria sanguinalis), read-out: Visual Growth Reduction (%) 14 Days After Application, DIGSA"}, "[13]": {"details": "ECHCG: barnyardgrass (Echinochloa crus-galli), read-out: Visual Growth Reduction (%) 14 Days After Application, ECHCG"}, "[14]": {"details": "ORYSA: rice (Oryza sativa), read-out: Visual Growth Reduction (%) 14 Days After Application, ORYSA"}, "[15]": {"details": "SETFA: giant foxtail (Setaria faberi), read-out: Visual Growth Reduction (%) 14 Days After Application, SETFA"}, "[16]": {"details": "SORVU: grain sorghum (Sorghum vulgare), read-out: Visual Growth Reduction (%) 14 Days After Application, SORVU"}, "[17]": {"details": "ZEAMX: maize, corn (Zea mays), read-out: Visual Growth Reduction (%) 14 Days After Application, ZEAMX"}}, "note": "Read-outs that look alike come from different tables or passages of the source.", "data": [{"molecule": "COC(=O)c1nc(-c2cc(F)c(I)cc2F)cc(N)c1Cl", "note": "[Compound 56]", "values": [{"measurement": "pest or weed control at 70 g/ha", "setting": "[1]; [3]", "value": "95 to 100", "unit": "%"}, {"measurement": "pest or weed control at 140 g/ha", "setting": "[1]; [3]", "value": "95 to 100", "unit": "%"}, {"measurement": "pest or weed control at 70 g/ha", "setting": "[1]; [4]", "value": "95 to 100", "unit": "%"}, {"measurement": "pest or weed control at 140 g/ha", "setting": "[1]; [4]", "value": "95 to 100", "unit": "%"}, {"measurement": "pest or weed control at 70 g/ha", "setting": "[1]; [5]", "value": "85 to 94", "unit": "%"}, {"measurement": "pest or weed control at 140 g/ha", "setting": "[1]; [5]", "value": "85 to 94", "unit": "%"}, {"measurement": "pest or weed control at 70 g/ha", "setting": "[1]; [6]", "value": "95 to 100", "unit": "%"}, {"measurement": "pest or weed control at 140 g/ha", "setting": "[1]; [6]", "value": "95 to 100", "unit": "%"}, {"measurement": "pest or weed control at 70 g/ha", "setting": "[1]; [7]", "value": "95 to 100", "unit": "%"}, {"measurement": "pest or weed control at 140 g/ha", "setting": "[1]; [7]", "value": "95 to 100", "unit": "%"}, {"measurement": "pest or weed control at 70 g/ha", "setting": "[1]; [8]", "value": "75 to 84", "unit": "%"}, {"measurement": "pest or weed control at 140 g/ha", "setting": "[1]; [8]", "value": "85 to 94", "unit": "%"}, {"measurement": "pest or weed control at 70 g/ha", "setting": "[1]; [9]", "value": "95 to 100", "unit": "%"}, {"measurement": "pest or weed control at 140 g/ha", "setting": "[1]; [9]", "value": "95 to 100", "unit": "%"}, {"measurement": "pest or weed control at 70 g/ha", "setting": "[2]; [10]", "value": "60 to 74", "unit": "%"}, {"measurement": "pest or weed control at 140 g/ha", "setting": "[2]; [10]", "value": "60 to 74", "unit": "%"}, {"measurement": "pest or weed control at 70 g/ha", "setting": "[2]; [11]", "value": "95 to 100", "unit": "%"}, {"measurement": "pest or weed control at 140 g/ha", "setting": "[2]; [11]", "value": "95 to 100", "unit": "%"}, {"measurement": "pest or weed control at 70 g/ha", "setting": "[2]; [12]", "value": "75 to 84", "unit": "%"}, {"measurement": "pest or weed control at 140 g/ha", "setting": "[2]; [12]", "value": "85 to 94", "unit": "%"}, {"measurement": "pest or weed control at 70 g/ha", "setting": "[2]; [13]", "value": "95 to 100", "unit": "%"}, {"measurement": "pest or weed control at 140 g/ha", "setting": "[2]; [13]", "value": "95 to 100", "unit": "%"}, {"measurement": "pest or weed control at 70 g/ha", "setting": "[2]; [14]", "value": "0 to 29", "unit": "%"}, {"measurement": "pest or weed control at 140 g/ha", "setting": "[2]; [14]", "value": "0 to 29", "unit": "%"}, {"measurement": "pest or weed control at 70 g/ha", "setting": "[2]; [15]", "value": "95 to 100", "unit": "%"}, {"measurement": "pest or weed control at 140 g/ha", "setting": "[2]; [15]", "value": "95 to 100", "unit": "%"}, {"measurement": "pest or weed control at 70 g/ha", "setting": "[2]; [16]", "value": "75 to 84", "unit": "%"}, {"measurement": "pest or weed control at 140 g/ha", "setting": "[2]; [16]", "value": "85 to 94", "unit": "%"}, {"measurement": "pest or weed control at 70 g/ha", "setting": "[2]; [17]", "value": "85 to 94", "unit": "%"}, {"measurement": "pest or weed control at 140 g/ha", "setting": "[2]; [17]", "value": "85 to 94", "unit": "%"}]}]}
